Holding throughout (assay type): biochemical
In experiment [1] the target is T1, β-Glucuronidase (Bovine liver) (Bos taurus, UniProt A3KMY8).
T1 construct: purchased Sigma-Aldrich Chemical Co; host or cells: bovine liver
T1 sequence (A3KMY8 1-652): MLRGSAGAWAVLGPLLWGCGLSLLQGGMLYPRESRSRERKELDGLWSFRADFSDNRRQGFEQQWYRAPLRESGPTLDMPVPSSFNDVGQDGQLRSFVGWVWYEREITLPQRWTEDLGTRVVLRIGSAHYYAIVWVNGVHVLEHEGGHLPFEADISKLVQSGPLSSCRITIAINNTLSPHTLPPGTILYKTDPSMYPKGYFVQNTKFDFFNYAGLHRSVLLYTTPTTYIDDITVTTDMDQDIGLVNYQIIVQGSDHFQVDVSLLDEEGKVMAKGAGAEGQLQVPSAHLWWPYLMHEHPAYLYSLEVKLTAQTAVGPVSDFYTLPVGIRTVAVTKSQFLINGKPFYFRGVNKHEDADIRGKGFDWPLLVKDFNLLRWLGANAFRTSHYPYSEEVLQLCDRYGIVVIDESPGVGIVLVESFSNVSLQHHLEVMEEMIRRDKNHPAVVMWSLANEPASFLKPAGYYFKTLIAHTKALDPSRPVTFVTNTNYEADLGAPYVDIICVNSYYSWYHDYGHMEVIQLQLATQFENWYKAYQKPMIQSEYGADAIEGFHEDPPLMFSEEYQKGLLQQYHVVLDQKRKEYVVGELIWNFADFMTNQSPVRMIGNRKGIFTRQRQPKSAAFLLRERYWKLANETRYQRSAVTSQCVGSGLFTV
Nature of the experiment: β-Glucuronidase (bovine liver) inhibition. The protocol: (§1) With rat intestinal maltase as an exception, other enzymes were purchased from Sigma-Aldrich Chemical Co. (St. Louis, MO, USA). Brush border membranes prepared from rat small intestine according to the method of Kessler et al. were assayed at pH 6.8 for rat intestinal maltase using maltose. The released D-glucose was determined colorimetrically using the Glucose CII-test Wako (Wako Pure Chemical Ind.; Osaka, Japan). Other glycosidase activities were determined using an appropriate p-nitrophenyl glycoside as substrate in a buffer solution at the optimal pH value of each enzyme. The reaction was stopped by adding 400 mM Na2CO3. The released p-nitrophenol was measured spectrometrically at 400 nm.

Experiment [2] concerns the target β-N-Acetylhexosaminidase (Jack bean). Briefly: β-N-Acetylhexosaminidase (Jack bean) inhibition. To be noted: β-N-Acetylhexosaminidase (β-GlcNAcase), read-out: IC50. The protocol: as §1
Experiment [3] addresses β-N-Acetylhexosaminidase (Bovine liver). Nature of the experiment: β-N-Acetylhexosaminidase (bovine liver) inhibition. Particulars: β-N-Acetylhexosaminidase (β-GlcNAcase), read-out: IC50. Here is the method:
as §1

Experiment [4] deals with T2, α-L-Fucosidase (Bovine kidney) (Bos taurus, UniProt Q2KIM0).
T2 construct: purchased Sigma-Aldrich Chemical Co; host or cells: bovine kidney
T2 sequence (Q2KIM0 23-468): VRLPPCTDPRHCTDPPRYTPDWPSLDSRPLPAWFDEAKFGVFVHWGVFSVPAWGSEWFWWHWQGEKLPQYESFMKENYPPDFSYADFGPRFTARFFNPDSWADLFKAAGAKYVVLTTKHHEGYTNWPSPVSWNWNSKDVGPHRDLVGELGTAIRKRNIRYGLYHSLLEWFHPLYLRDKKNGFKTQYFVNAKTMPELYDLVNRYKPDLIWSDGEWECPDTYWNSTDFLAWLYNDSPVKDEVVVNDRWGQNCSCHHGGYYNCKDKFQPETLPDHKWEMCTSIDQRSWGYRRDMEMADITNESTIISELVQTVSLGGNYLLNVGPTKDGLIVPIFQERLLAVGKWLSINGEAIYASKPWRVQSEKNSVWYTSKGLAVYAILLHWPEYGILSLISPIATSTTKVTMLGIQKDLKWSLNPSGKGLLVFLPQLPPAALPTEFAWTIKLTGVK
Briefly: α-L-Fucosidase (bovine kidney) inhibition. Here is the method:
as §1

For experiment [5], the target named is T3, α-Galactosidase (Coffee beans) (Coffea arabica, UniProt Q42656).
T3 construct: purchased Sigma-Aldrich Chemical Co
T3 sequence (Q42656 16-378): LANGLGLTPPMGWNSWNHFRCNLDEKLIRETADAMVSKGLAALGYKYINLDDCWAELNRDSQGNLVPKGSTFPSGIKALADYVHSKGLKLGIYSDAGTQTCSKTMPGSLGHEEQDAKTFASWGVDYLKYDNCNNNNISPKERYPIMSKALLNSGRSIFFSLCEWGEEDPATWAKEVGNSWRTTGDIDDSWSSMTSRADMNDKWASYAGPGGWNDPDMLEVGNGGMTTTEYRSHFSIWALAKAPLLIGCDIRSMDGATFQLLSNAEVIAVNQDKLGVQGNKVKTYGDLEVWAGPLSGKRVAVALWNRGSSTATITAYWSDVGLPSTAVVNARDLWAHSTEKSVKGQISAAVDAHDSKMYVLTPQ
Briefly: α-Galactosidase (coffee beans) inhibition. The protocol:
as §1

The target of another experiment is β-Mannosidase (Snail). Briefly: β-Mannosidase (snail) inhibition. The protocol: as §1
In experiment [6] the target is T4, β-Glucuronidase (E. coli) (Escherichia coli, UniProt P05804).
T4 construct: purchased Sigma-Aldrich Chemical Co
T4 sequence (P05804 whole entry): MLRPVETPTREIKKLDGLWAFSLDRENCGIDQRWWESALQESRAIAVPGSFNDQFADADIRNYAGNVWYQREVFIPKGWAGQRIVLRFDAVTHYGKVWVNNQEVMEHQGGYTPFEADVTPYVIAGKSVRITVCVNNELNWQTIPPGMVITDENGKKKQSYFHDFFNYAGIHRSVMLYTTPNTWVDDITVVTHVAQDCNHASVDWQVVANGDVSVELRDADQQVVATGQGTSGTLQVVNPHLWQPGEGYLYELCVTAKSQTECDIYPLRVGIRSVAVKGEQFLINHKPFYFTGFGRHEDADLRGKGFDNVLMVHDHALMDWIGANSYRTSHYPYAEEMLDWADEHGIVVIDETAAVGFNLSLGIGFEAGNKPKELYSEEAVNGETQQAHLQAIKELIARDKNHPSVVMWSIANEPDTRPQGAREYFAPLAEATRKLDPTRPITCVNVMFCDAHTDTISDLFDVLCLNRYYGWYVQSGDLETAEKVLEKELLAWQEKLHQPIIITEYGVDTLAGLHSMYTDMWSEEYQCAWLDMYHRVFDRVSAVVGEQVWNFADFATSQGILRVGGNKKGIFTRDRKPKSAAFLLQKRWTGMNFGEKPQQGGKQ
Briefly: β-Glucuronidase (E. coli) inhibition. The protocol:
as §1

The target of the next experiment is α-Glucosidase (Yeast) (Saccharomyces cerevisiae, UniProt P53341). Nature of the experiment: α-Glucosidase (yeast) inhibition. Here is the method: as §1
Chain of α-Glucosidase (Yeast) (P53341 whole entry): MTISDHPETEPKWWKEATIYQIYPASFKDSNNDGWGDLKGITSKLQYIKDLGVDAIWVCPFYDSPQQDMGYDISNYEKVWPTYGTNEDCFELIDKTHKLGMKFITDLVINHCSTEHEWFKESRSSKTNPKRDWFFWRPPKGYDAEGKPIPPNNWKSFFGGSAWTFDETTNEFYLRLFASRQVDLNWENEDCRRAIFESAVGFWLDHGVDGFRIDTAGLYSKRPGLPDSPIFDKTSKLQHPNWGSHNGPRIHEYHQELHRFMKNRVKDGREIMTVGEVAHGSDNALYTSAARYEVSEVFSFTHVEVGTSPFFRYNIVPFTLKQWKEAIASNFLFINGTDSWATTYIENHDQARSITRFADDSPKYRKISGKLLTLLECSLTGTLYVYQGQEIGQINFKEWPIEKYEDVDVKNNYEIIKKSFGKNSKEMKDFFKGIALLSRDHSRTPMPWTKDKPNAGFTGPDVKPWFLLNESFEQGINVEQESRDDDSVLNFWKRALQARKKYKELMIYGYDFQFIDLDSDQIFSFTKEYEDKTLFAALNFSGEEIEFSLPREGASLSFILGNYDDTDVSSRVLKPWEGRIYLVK
The target in experiment [7] is T5, α-N-Acetylgalactosaminidase (Chicken liver) (Gallus gallus, UniProt Q90744).
T5 construct: purchased Sigma-Aldrich Chemical Co; host or cells: chicken liver
T5 sequence (Q90744 1-405): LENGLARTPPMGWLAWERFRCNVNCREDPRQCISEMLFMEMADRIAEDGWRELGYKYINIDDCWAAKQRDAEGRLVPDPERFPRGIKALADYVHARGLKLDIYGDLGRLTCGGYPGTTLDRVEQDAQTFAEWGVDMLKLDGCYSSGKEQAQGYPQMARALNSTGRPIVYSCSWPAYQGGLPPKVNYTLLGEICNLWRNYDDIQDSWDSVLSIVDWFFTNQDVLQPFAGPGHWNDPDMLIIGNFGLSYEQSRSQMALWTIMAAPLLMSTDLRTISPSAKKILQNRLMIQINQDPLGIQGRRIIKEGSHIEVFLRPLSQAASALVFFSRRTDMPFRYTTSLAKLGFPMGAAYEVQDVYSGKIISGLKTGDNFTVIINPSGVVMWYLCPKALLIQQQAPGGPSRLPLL
Nature of the experiment: α-N-Acetylgalactosaminidase (chicken liver) inhibition. The protocol:
as §1

[8] abbreviates: 1000 μM, read-out: Inhibition % at 1000 μM.
Where [9] appears, read: read-out: Inhibition % at 1000 μM.
Where [10] appears, read: α-Glucosidase, Yeast, read-out: IC50.

Counter-ions that a name gives are not always drawn. Like-named read-outs stand apart in the source and are kept apart here.

By IC50 is commonly meant the concentration at which inhibition is half-maximal. On to `CC(=O)NC[C@H]1N[C@@H](CO)[C@H](O)[C@@H]1O` [G-10, 1-N-acetylamino-2,5-imino-1,2,5-trideoxy-D-allitol hydrochloride], for which the inhibition at 1000 µM was 0% in experiment [1] (setting [8]); under 50% in experiment [1] (read-out: IC50); 11.5% in [4] (setting [8]); under 50% in experiment [4] (read-out: IC50); 0% in experiment [5] (setting [8]); under 50% in [5] (read-out: IC50). Besides, the inhibition at 1000 µM in experiment [6] (setting [8]) was 0%; in [6] (read-out: IC50), under 50%; at α-Glucosidase (Yeast) (setting [9]), 0%; at α-Glucosidase (Yeast) (setting [10]), under 50%; in experiment [7] (setting [8]), 2.3%; in [7] (read-out: IC50), under 50%. In addition, the IC50 is 26 µM in experiment [2], 299 µM in [3] and “NI (No Inhibition (less than 50% at 1000 μM))” at β-Mannosidase (Snail). Further, the “Inhibition % at 1000 μM” value with β-Mannosidase (Snail) amounted to 0%.
For the compound `CC(=O)NC[C@H]1N[C@H](CO)[C@H](O)[C@H]1O` [F-10b, 1-N-acetylamino-2,5-imino-1,2,5-trideoxy-D-iditol hydrochloride], the inhibition at 1000 µM in experiment [1] (setting [8]) was 0%; in [1] (read-out: IC50), under 50%; in experiment [4] (setting [8]) it was 3.9%; in experiment [4] (read-out: IC50) it was under 50%; in experiment [5] (setting [8]), 0%; in [5] (read-out: IC50), under 50%. In addition, the inhibition at 1000 µM in [6] (setting [8]) is 0%; in [6] (read-out: IC50) it was under 50%; at α-Glucosidase (Yeast) (setting [9]), 0%; on α-Glucosidase (Yeast) (setting [10]), under 50%; in experiment [7] (setting [8]) it was 2.3%; in experiment [7] (read-out: IC50), under 50%. Besides, the IC50 in experiment [2] is 98 µM; in [3], 652 µM; against β-Mannosidase (Snail), “NI (No Inhibition (less than 50% at 1000 μM))”. Further, the “Inhibition % at 1000 μM” value in the experiment with β-Mannosidase (Snail) was found to be 0%.
In the case of `CC(=O)NC[C@@H]1N[C@@H](CO)[C@H](O)[C@H]1O` [A-10, 1-N-acetylamino-2,5-imino-1,2,5-trideoxy-L-mannitol hydrochloride], the inhibition at 1000 µM in experiment [1] (setting [8]) is 4.6%; in experiment [1] (read-out: IC50), under 50%; in [4] (setting [8]) it was 0%; in experiment [4] (read-out: IC50) it was under 50%; in experiment [5] (setting [8]), 0%; in experiment [5] (read-out: IC50) it was under 50%. Besides, the inhibition at 1000 µM in [6] (setting [8]) is 0%; in experiment [6] (read-out: IC50), under 50%; on α-Glucosidase (Yeast) (setting [9]) it was 0.5%; on α-Glucosidase (Yeast) (setting [10]) it was under 50%; in experiment [7] (setting [8]), 0%; in [7] (read-out: IC50), under 50%. Further, the IC50 in experiment [2] is 202 µM; in experiment [3], 943 µM; on β-Mannosidase (Snail) it was “NI (No Inhibition (less than 50% at 1000 μM))”. Besides, in the experiment on β-Mannosidase (Snail), the “Inhibition % at 1000 μM” value stood at 0%.
On to `CC(=O)NC[C@H]1N[C@H](CO)[C@@H](O)[C@@H]1O` [4·HCl, 1-N-acetylamino-2,5-imino-1,2,5-trideoxy-D-mannitol hydrochloride], for which the inhibition at 1000 µM is 1.7% in [1] (setting [8]); under 50% in [1] (read-out: IC50); 1.5% in experiment [4] (setting [8]); under 50% in experiment [4] (read-out: IC50); 1.1% in experiment [5] (setting [8]); under 50% in experiment [5] (read-out: IC50). The inhibition at 1000 µM was 0.6% in experiment [6] (setting [8]), under 50% in experiment [6] (read-out: IC50), 3.3% in experiment [7] (setting [8]) and under 50% in experiment [7] (read-out: IC50). Moreover, the IC50 worked out at 0.21 µM in experiment [2]; 4.7 µM in experiment [3]; 296 µM at β-Mannosidase (Snail) (read-out: IC50); 450 µM against α-Glucosidase (Yeast) (α-Glucosidase, Yeast).

These data come from article PMC7180638, “Synthesis of Pyrrolidine Monocyclic Analogues of Pochonicine and Its Stereoisomers: Pursuit of Simplified Structures and Potent β-N-Acetylhexosaminidase Inhibition” (Molecules, 2020).
